Data from patent US8916575B2, “Quinazoline derivatives for the treatment of viral infections and further diseases” (Janssen R&D Ireland, priority 2011, dated 2014).

Tested on: interferon-stimulated responsive elements (ISRE)
Experiment: Activation of ISRE promoter elements by conditioned media from PBMC (HEK-ISREluc)
Type: cell-based, human
Set-up: unit not given here
Conditions: compound applied to PBMCs, supernatant transferred to HEK-ISREluc cells, 24 hours
Experimental: The potential of compounds to induce IFN-I was also evaluated by measuring the activation of interferon-stimulated responsive elements (ISRE) by conditioned media from PBMC. The ISRE element of sequence GAAACTGAAACT is highly responsive to the STAT1-STAT2-IRF9 transcription factor, activated upon binding of IFN-I to their receptor IFNAR (Clontech, PT3372-5W). The plasmid pISRE-Luc from Clontech (ref. 631913) contains 5 copies of this ISRE element, followed by the firefly luciferase ORF. A HEK293 cell line stably transfected with pISRE-Luc (HEK-ISREluc) was established to profile of the conditioned PBMC cell culture media.
Briefly, PBMCs were prepared from buffy coats of at least two donors using a standard Ficoll centrifugation protocol. Isolated PBMCs were resuspended in RPMI medium supplemented with 10% human AB serum and 2×10^5 cells/well were dispensed into 384-well plates containing compounds (70 μL total volume). After overnight incubation, 10 μL of supernatant was transferred to 384-well plates containing 5×10^3 HEK-ISREluc cells/well in 30 μL (plated the day before). Following 24 hours of incubation, activation of the ISRE elements was measured by assaying luciferase activity using 40 μL/well Steady Lite Plus substrate (Perkin Elmer) and measured with ViewLux ultraHTS microplate imager (Perkin Elmer). The stimulating activity of each compound on the HEK-ISREluc cells was reported as LEC value, defined as the compound concentration applied to the PBMCs resulting in a luciferase activity at least two fold above the standard deviation of the assay. The LEC in turn indicates the degree of ISRE activation on transfer of a defined amount of PBMC culture medium. Recombinant interferon α-2a (Roferon-A) was used as a standard control compound.

Structure (SMILES): CCC[C@@H](CO)Nc1nc(N)nc2cc(C)ccc12 [Compound 44]
- HEK-ISRE luc (LEC): 0.09

Structure (SMILES): CCCC[C@@H](CCO)Nc1nc(N)nc2cccc(C)c12 [Compound 75]
- HEK-ISRE luc (LEC): 0.02

Structure (SMILES): CCC[C@@H](CO)Nc1nc(N)nc2cc(CO)ccc12 [Compound 33]
- HEK-ISRE luc (LEC): 0.14

Structure (SMILES): CCCCNc1nc(N)nc2cccc(OC)c12 [Compound 9]
- HEK-ISRE luc (LEC): 0.10

Structure (SMILES): CCC[C@@H](CO)Nc1nc(N)nc2cc(F)c(F)cc12 [Compound 72]
- HEK-ISRE luc (LEC): 0.05

Structure (SMILES): CCCC[C@@H](CCO)Nc1nc(N)nc2cc(C)ccc12 [Compound 73]
- HEK-ISRE luc (LEC): 0.02

Structure (SMILES): CCC[C@@H](CO)Nc1nc(N)nc2cccc(F)c12 [Compound 50]
- HEK-ISRE luc (LEC): 0.01

Structure (SMILES): CCCCNc1nc(N)nc2cccc(OC(C)C)c12 [Compound 31]
- HEK-ISRE luc (LEC): 0.04

Structure (SMILES): CCCC[C@@H](CCO)Nc1nc(N)nc2ccc(F)cc12 [Compound 83]
- HEK-ISRE luc (LEC): 0.37

Structure (SMILES): CCC[C@@H](CCO)Nc1nc(N)nc2ccc(C(C)C)cc12 [Compound 26]
- HEK-ISRE luc (LEC): 3.07

Structure (SMILES): CCCC[C@@H](CO)Nc1nc(N)nc2cccc(C)c12 [Compound 52]
- HEK-ISRE luc (LEC): 0.03

Structure (SMILES): CCC[C@@H](CCO)Nc1nc(N)nc2cc(C)ccc12 [Compound 53]
- HEK-ISRE luc (LEC): 0.02

Structure (SMILES): CCC[C@@H](CCO)Nc1nc(N)nc2c(F)cccc12 [Compound 63]
- HEK-ISRE luc (LEC): 0.04

Structure (SMILES): CCCCNc1nc(N)nc2ccc(OC)cc12 [Compound 40]
- HEK-ISRE luc (LEC): 2.44

Structure (SMILES): CCC[C@@H](CO)Nc1nc(N)nc2cc(OC)ccc12 [Compound 56]
- HEK-ISRE luc (LEC): 0.09

Structure (SMILES): CCCCNc1nc(N)nc2cccc(CCc3ccccc3)c12 [Compound 32]
- HEK-ISRE luc (LEC): 0.27

Structure (SMILES): CCC[C@@H](CCO)Nc1nc(N)nc2ccc(CC)cc12 [Compound 25]
- HEK-ISRE luc (LEC): 0.16

Structure (SMILES): CCCC[C@@H](CO)Nc1nc(N)nc2ccc(C)cc12 [Compound 51]
- HEK-ISRE luc (LEC): 0.09

Structure (SMILES): CCC[C@@H](CO)Nc1nc(N)nc2cccc(C)c12 [Compound 46]
- HEK-ISRE luc (LEC): 0.07

Structure (SMILES): CCC[C@@H](CCO)Nc1nc(N)nc2ccc(Oc3ccc(C(F)(F)F)cc3)cc12 [Compound 29]
- HEK-ISRE luc (LEC): >23.81

Structure (SMILES): CC[C@H](C)[C@@H](CO)Nc1nc(N)nc2ccc(F)cc12 [Compound 68]
- HEK-ISRE luc (LEC): 0.64

Structure (SMILES): CCC[C@@H](CCO)Nc1nc(N)nc2ccc(OC)cc12 [Compound 79]
- HEK-ISRE luc (LEC): 2.07

Structure (SMILES): CCC[C@@H](CO)Nc1nc(N)nc2c(C)cccc12 [Compound 43]
- HEK-ISRE luc (LEC): 0.59

Structure (SMILES): CCC[C@@H](CO)Nc1nc(N)nc2cc(C(=O)OC)ccc12 [Compound 86]
- HEK-ISRE luc (LEC): 0.28

Structure (SMILES): CCC[C@@H](CCO)Nc1nc(N)nc2ccc(Oc3ccc(C(F)(F)F)cc3Cl)cc12 [Compound 27]
- HEK-ISRE luc (LEC): 14.21

Structure (SMILES): CCC[C@@H](CO)Nc1nc(N)nc2ccc(C)cc12 [Compound 45]
- HEK-ISRE luc (LEC): 0.04

Structure (SMILES): CCCC[C@@H](CO)Nc1nc(N)nc2ccc(OC)cc12 [Compound 77]
- HEK-ISRE luc (LEC): 1.93

Structure (SMILES): CCC[C@@H](CCO)Nc1nc(N)nc2ccc(F)cc12 [Compound 65]
- HEK-ISRE luc (LEC): 0.56

Structure (SMILES): CCCCNc1nc(N)nc2cc(OC)c(OCc3ccccc3)cc12 [Compound 89]
- HEK-ISRE luc (LEC): >24

Structure (SMILES): CCCCNc1nc(N)nc2ccc(CO)cc12 [Compound 24]
- HEK-ISRE luc (LEC): 0.14

Structure (SMILES): CCC[C@@H](CO)Nc1nc(N)nc2ccc(CO)cc12 [Compound 34]
- HEK-ISRE luc (LEC): 0.39

Structure (SMILES): CCCC[C@@H](CO)Nc1nc(N)nc2ccc(F)cc12 [Compound 61]
- HEK-ISRE luc (LEC): 0.12

Structure (SMILES): CCCC[C@@H](CCO)Nc1nc(N)nc2ccc(OC)cc12 [Compound 88]
- HEK-ISRE luc (LEC): 0.88

Structure (SMILES): CCC[C@@H](CO)Nc1nc(N)nc2cc(F)ccc12 [Compound 48]
- HEK-ISRE luc (LEC): 0.02

Structure (SMILES): CCCCCNc1nc(N)nc2ccc(Br)cc12 [Compound 13]
- HEK-ISRE luc (LEC): 0.57

Structure (SMILES): CCCCNc1nc(N)nc2ccc(F)cc12 [Compound 38]
- HEK-ISRE luc (LEC): 0.11

Structure (SMILES): CC[C@H](C)[C@@H](CO)Nc1nc(N)nc2ccc(OC)cc12 [Compound 80]
- HEK-ISRE luc (LEC): >24

Structure (SMILES): CCCC[C@@H](CCO)Nc1nc(N)nc2c(F)cccc12 [Compound 81]
- HEK-ISRE luc (LEC): 0.05

Structure (SMILES): CCCCNc1nc(N)nc2cccc(OCCOC)c12 [Compound 11]
- HEK-ISRE luc (LEC): 0.12

Structure (SMILES): CCC[C@@H](CCO)Nc1nc(N)nc2ccc(C)cc12 [Compound 54]
- HEK-ISRE luc (LEC): 0.18

Structure (SMILES): CCC[C@@H](CCO)Nc1nc(N)nc2cccc(F)c12 [Compound 66]
- HEK-ISRE luc (LEC): 0.06

Structure (SMILES): CCC[C@@H](CO)Nc1nc(N)nc2cccc(Cl)c12 [Compound 71]
- HEK-ISRE luc (LEC): 0.03

Structure (SMILES): CCCC[C@@H](CO)Nc1nc(N)nc2cccc(F)c12 [Compound 62]
- HEK-ISRE luc (LEC): 0.03

Structure (SMILES): CCC[C@@H](CO)Nc1nc(N)nc2cc(Cl)ccc12 [Compound 70]
- HEK-ISRE luc (LEC): 0.01

Structure (SMILES): CCCCNc1nc(N)nc2cc(C(=O)OC)ccc12 [Compound 17]
- HEK-ISRE luc (LEC): 0.75

Structure (SMILES): CCCC[C@@H](CO)Nc1nc(N)nc2cc(F)ccc12 [Compound 60]
- HEK-ISRE luc (LEC): 0.02

Structure (SMILES): CC[C@H](C)[C@@H](CO)Nc1nc(N)nc2c(F)cccc12 [Compound 67]
- HEK-ISRE luc (LEC): 0.21

Structure (SMILES): CCCCNc1nc(N)nc2ccc(-n3cnc(C)c3)cc12 [Compound 21]
- HEK-ISRE luc (LEC): 12.06

Structure (SMILES): CCC[C@@H](CO)Nc1nc(N)nc2c(Cl)cccc12 [Compound 69]
- HEK-ISRE luc (LEC): 0.73

Structure (SMILES): CCCC[C@@H](CCO)Nc1nc(N)nc2cc(F)ccc12 [Compound 82]
- HEK-ISRE luc (LEC): 0.04

Structure (SMILES): CCC[C@@H](CO)Nc1nc(N)nc2ccc(F)cc12 [Compound 49]
- HEK-ISRE luc (LEC): 0.13

Structure (SMILES): CCCCNc1nc(N)nc2cccc(C)c12 [Compound 36]
- HEK-ISRE luc (LEC): 0.32

Structure (SMILES): CCC[C@@H](CO)Nc1nc(N)nc2cccc(OC)c12 [Compound 58]
- HEK-ISRE luc (LEC): 0.04

Structure (SMILES): CCC[C@@H](CCO)Nc1nc(N)nc2cc(F)ccc12 [Compound 64]
- HEK-ISRE luc (LEC): 0.04

Structure (SMILES): CCCCNc1nc(N)nc2cccc(Cl)c12 [Compound 41]
- HEK-ISRE luc (LEC): 0.17

Structure (SMILES): CCCCNc1nc(N)nc2cc(F)c(F)cc12 [Compound 42]
- HEK-ISRE luc (LEC): 0.26

Structure (SMILES): CCCCNc1nc(N)nc2c(F)cccc12 [Compound 37]
- HEK-ISRE luc (LEC): 0.07

Structure (SMILES): CCCC[C@@H](CCO)Nc1nc(N)nc2cc(OC)ccc12 [Compound 87]
- HEK-ISRE luc (LEC): 0.04

Structure (SMILES): CCCC[C@@H](CCO)Nc1nc(N)nc2ccc(C)cc12 [Compound 74]
- HEK-ISRE luc (LEC): 0.14

Structure (SMILES): CCCCNc1nc(N)nc2ccc(Br)cc12 [Compound 85]
- HEK-ISRE luc (LEC): 0.21

Structure (SMILES): CCCCNc1nc(N)nc2cc(Cl)c3c(c12)OCCO3 [Compound 28]
- HEK-ISRE luc (LEC): 1.11

Structure (SMILES): CCCCNc1nc(N)nc2cc(CO)ccc12 [Compound 18]
- HEK-ISRE luc (LEC): 0.05

Structure (SMILES): CCCCNc1nc(N)nc2cc(OC)ccc12 [Compound 39]
- HEK-ISRE luc (LEC): 0.15

Structure (SMILES): CCC[C@@H](CO)Nc1nc(N)nc2cccc(-c3ccccc3)c12 [Compound 10]
- HEK-ISRE luc (LEC): 2.14

Structure (SMILES): C#CCOc1cccc2nc(N)nc(NCCCC)c12 [Compound 30]
- HEK-ISRE luc (LEC): 0.04

Structure (SMILES): CCCC[C@@H](CO)Nc1nc(N)nc2cc(OC)ccc12 [Compound 76]
- HEK-ISRE luc (LEC): 0.09

Structure (SMILES): CCC[C@@H](CO)Nc1nc(N)nc2c(F)cccc12 [Compound 47]
- HEK-ISRE luc (LEC): 0.05

Structure (SMILES): CCC[C@@H](CCO)Nc1nc(N)nc2cc(OC)ccc12 [Compound 78]
- HEK-ISRE luc (LEC): 0.04

Structure (SMILES): CCCC[C@@H](CO)Nc1nc(N)nc2c(F)cccc12 [Compound 59]
- HEK-ISRE luc (LEC): 0.05

Structure (SMILES): CCCC[C@@H](CCO)Nc1nc(N)nc2cccc(F)c12 [Compound 84]
- HEK-ISRE luc (LEC): 0.09

Structure (SMILES): CCC[C@@H](CO)Nc1nc(N)nc2ccc(OC)cc12 [Compound 57]
- HEK-ISRE luc (LEC): 2.08

Structure (SMILES): CCCCNc1nc(N)nc2ccc(Oc3ccc(C(F)(F)F)cc3Cl)cc12 [Compound 35]
- HEK-ISRE luc (LEC): >23.81
